Measured values taken from ChEMBL document CHEMBL2094269, “WEHI/Eskitis Trypanosoma b. brucei screening data”.
Values joined by “and” are separate entries in the source; they are usually repeats but may differ in a detail not shown here. Equal entries are not always repeated.

Legend:
[1] = DNDI: Cytotoxicity against human MRC-5 lung fibroblast cells.; settings: IC50
[2] = test system: Trypanosoma brucei brucei; test: microbe, parasite or virus in culture; format: functional, organism-based, STIB 795
Description: DNDI: Inhibition of Human African Trypanosomiasis (HAT), STIB 795, in vitro

SMILES | IC50 [1] [µM] | IC50 ([2]; Trypanosoma brucei, STIB 795) [µM] | IC50 [2]
CCOc1ccc(OCc2ccc(C(=O)N3CCCC(C)C3)cc2)cc1 (centres undefined) | > 41.7 | 2.56 | 
CN(C)CCCNc1nc(-c2ccc(Cl)cc2)nc2ccccc12 | > 20.8 | 3.74 | 
COc1ccc(-c2cc(-c3ccccc3)c(C#N)c([S+](C)[O-])n2)cc1 (centres undefined) | > 41.7 | 0.206 | 
Cc1ccc(C23CC4CC(CC(NC(=O)NCCN(C)C)(C4)C2)C3)cc1 | > 20.8 | 4.01 | 
COc1ccc(C(=O)O/N=C(\N)c2ccc(OC)c(OC)c2)c(OC)c1 | > 41.7 | 1.33 | 
Cc1cc(C)nc(C(=N)Nc2nc(-c3ccccn3)cc3ccccc23)n1 | 0.216 | 0.245 | 
CN1CCc2nc3sc(C(=O)c4ccc(F)cc4)c(N)c3cc2C1 | > 41.7 | 6.35 | 
COc1ccc2[nH]c(C)c(CCNCc3cn(C)c4ccccc34)c2c1 | > 20.8 | 4.74 | 
Cc1ccccc1Cn1c(=N)n(CC(O)c2ccco2)c2ccccc21 (centres undefined) | > 20.8 | 5.25 | 
CCOc1c(Cl)cc(CNCCc2c[nH]c3ccccc23)cc1OC | > 41.7 | 5.09 | 
COc1ccc(-c2cc3ccccc3n2CC(O)CNCCO)cc1 (centres undefined) | > 20.8 | 5.17 | 
N=c1n(CCc2ccccc2)c2ccccc2n1Cc1ccccc1F | > 20.8 | 5.49 | 
COc1ccccc1-c1nc(SCC(=O)c2ccc(O)c(O)c2)n[nH]1 | > 41.7 | 2.69 | 
COC(=O)c1nc(-c2ccccc2)nc(-c2ccccc2)c1C(=O)OC | > 4.17 | 4.78 | 
Cc1nnc(-c2ccccc2)c(=O)n1/N=C/c1c(O)ccc2ccccc12 | > 4.17 | 6.25 | 6.05 µM
NCCNCCOC(c1ccc(Cl)cc1)c1ccc(Cl)cc1 | 5.61 | 0.239 | 
Oc1c(C(c2ccccc2Cl)N2CCOCC2)ccc2cccnc12 (centres undefined) | > 20.8 | 5.59 | 
CN1C/C(=C/c2ccc(C#N)cc2)C(=O)/C(=C/c2ccc(C#N)cc2)C1 | > 20.8 | 0.366 | 
CC(C)c1ccc(OCc2ccc(C(=O)NCCN(C)C)cc2)cc1 | > 20.8 | 5.86 | 
Clc1cccc(CNC2=Nc3ccccc3NC23CCNCC3)c1 | 9.14 | 1.2 | 
Cc1ncc(CO)c(/C=N/NC(=O)c2ccc(C(C)(C)C)cc2)c1O | 6.25 | 4.26 | 
CC(C)NCC(O)COc1cccc2c(=O)c3ccccc3sc12 (centres undefined) | > 20.8 | 5.46 | 
c1ccc(Cn2s/c(=N\c3ccccc3)nc2-c2ccccc2)cc1 | > 20.8 | 1.38 | 

SMILES | IC50 [1] [µM] | IC50 ([2]; Trypanosoma brucei, STIB 795) [µM] | IC50 [2]
CN(/C=C/C=C/C=C/C1=[N+](C)c2ccccc2C1(C)C)c1ccccc1 | > 20.8 | 1.97 | 
Clc1ccc(C[n+]2cc(-c3ccccc3)n3c2CCC3)c(Cl)c1 | > 41.7 | 5.23 | 
COc1ccccc1C/C(N)=N/OC(=O)c1ccc(OC)c(OC)c1 | > 4.17 | 0.558 | 
COc1cc(C(=O)N/N=C(/C)c2ccccc2O)cc(OC)c1OC | > 4.17 | 4.45 | 
CC(=O)O[C@H]1CCC2C3CCC4=CC(=O)CC[C@]4(C)C3C(=O)C[C@@]21C (some centres undefined) | 6.4 | 0.39 | 
CN1CCN(C2Cc3ccc(F)cc3Sc3ccc(O)cc32)CC1 (centres undefined) | > 41.7 | 2.61 | 
O=C(c1ccc(F)cc1)C(CSc1ccc(F)cc1)n1cncn1 (centres undefined) | > 41.7 | 4.92 | 
Cc1cc(C)nc(NC(c2ccco2)c2ccc3cccnc3c2O)n1 (centres undefined) | > 41.7 | 5.39 | 
CCCOc1ccc(C(=O)Nc2ccc(Cc3ccncc3)cc2)cc1 | 4.61 | 1.23 | 
O=C(CN1CCN(c2ccc(Cl)cc2)CC1)c1ccc(O)c(O)c1 | > 41.7 | 3.04 | 
O=C(CC(SCc1ccco1)c1ccc(Cl)cc1)c1ccco1 (centres undefined) | > 41.7 |  | 5.16 µM and > 10.4 µM
CC1(C)CC(NC2=C(Cl)C(=O)c3ccccc3C2=O)CC(C)(C)N1 | 5.07 | 1.79 | 
CN(C)CCCNc1nn2c(=O)c3ccccc3nc2c2ccccc12 | > 4.17 | 5.39 | 
CCCCc1ccc(NC(=S)NC2CC(C)(C)NC(C)(C)C2)cc1 | > 20.8 | 2.74 | 
CN(C)CCCC1c2ccccc2Sc2ccc(Cl)cc2C1O (centres undefined) | > 20.8 | 5.87 | 
O=C(CSc1cccc2cccnc12)c1ccc(Cl)cc1Cl | > 41.7 | 1.4 | 
O=C(NCCc1nc(-c2ccccc2)cs1)C1(c2ccccc2)CC1 | > 41.7 | 5.81 | 4.88 µM
COc1ccc(C(=O)O/N=C(\N)Cc2ccc(Cl)cc2)c(OC)c1 | > 20.8 | 0.104 | 
CCOC(=O)C1CCCN(Cc2cc(Cl)c3cccnc3c2O)C1 (centres undefined) | > 4.17 | 5.09 | 
CC1(C)CC(=O)C/C(=N\NC(=O)c2sc3ccccc3c2Cl)C1 | > 41.7 | 2.2 | 
COC(=O)c1ccccc1OCCCON1C(N)=NC(N)=NC1(C)C | > 0.42 | 0.351 | 
C=CCn1c(-c2cccs2)nn(C2CC(=O)C3OCC2O3)c1=S (centres undefined) | > 20.8 | 4.75 | 4.4 µM
CCN(CC)c1ccc(/C=N/NC(=O)c2nn(C)cc2Cl)c(O)c1 | > 41.7 | 1.44 | 

SMILES | IC50 [1] [µM] | IC50 ([2]; Trypanosoma brucei, STIB 795) [µM] | IC50 [2]
Clc1ccc(C(OCC2CCCCN2)c2ccc(Cl)cc2)cc1 (centres undefined) | > 4.17 | 2.78 | 
Cc1nc2sccn2c1C(=O)N/N=C/c1c(O)ccc2ccccc12 | > 4.17 | 1.53 | 
CCOc1ccc(C2=CC(C(C(C)=O)C(C)=O)c3ccccc3O2)cc1 (centres undefined) | > 41.7 | 4.42 | 
COc1cc2nc(NC3CCCc4ccccc43)nc(N)c2cc1OC (centres undefined) | > 4.17 | 4.75 | 
CCC1CCCCN1S(=O)(=O)c1ccc(-c2ccno2)cc1OC (centres undefined) | > 41.7 | 2.73 | 
CC(=O)NC1=C(Br)C(=O)c2cccc(NC(C)=O)c2C1=O | 7.49 | 1.15 | 
Oc1c(C(Nc2nccs2)c2ccc(F)cc2)ccc2cccnc12 (centres undefined) | > 20.8 |  | 2.37 µM and > 10.4 µM
NC1=NC(CCc2ccccc2)N(OCCCc2ccccc2)C(N)=N1 (centres undefined) | > 4.17 | ≤ 2.78 | 
CC(NCCC(c1ccccc1)C1CCOC(C)(C)C1)c1ccccc1 (centres undefined) | > 41.7 | 4.93 | 
CC(C)(C)n1ncc(SC/C(=N\O)c2ccccc2)c(Cl)c1=O | > 41.7 | 2.37 | 
Cc1[nH]c2ccc(OC(F)(F)F)cc2c1CCNCC1CC=CCC1 (centres undefined) | 7.85 | 2.89 | 
O=C(CC(Nc1ccc2ccccc2c1)c1ccncc1)c1cccnc1 (centres undefined) | > 41.7 | 0.827 | 
COc1ccc(C(CC(=O)c2ccncc2)SCc2ccco2)cc1 (centres undefined) | > 41.7 | 4.3 | 
CN1CCN(C2Cc3ccccc3Sc3ccc(N(C)C)cc32)CC1 (centres undefined) | > 41.7 | 5.04 | 
CCOc1cc(CNCCO)cc(Cl)c1OCc1ccccc1F | > 20.8 | 2.43 | 
CCN1/C(=C\C=C/C2C=Cc3ccccc3N2CC)C=Cc2ccccc21 (centres undefined) | 5.14 | 0.408 | 
CCN(CC)CCCCN(CCc1ccccc1)Cc1ccc(O)cc1 | > 41.7 | 4.55 | 
Cc1cc(C(=O)N/N=C/c2c(O)ccc3ccccc23)c2ccccc2n1 | > 4.17 | 5.24 | 
CCc1ccc(NS(=O)(=O)c2cc(-c3cc(C)n[nH]3)ccc2C)cc1 | > 4.17 | 1.23 | 
Cc1cccc(C)c1C(O)(CC(O)CNC(C)C)c1c(C)cccc1C (centres undefined) | > 41.7 | 4.92 | 
CC(C)NCC(O)CC(O)(c1ccccc1)c1ccc(C(C)(C)C)cc1 (centres undefined) | > 20.8 | 5.12 | 
Cc1ccc2oc(SCC(=O)Nc3nc4ccccc4s3)nc2n1 | > 20.8 | 2.16 | 
O=C(NC(=S)NNC(=S)N/N=C/c1ccccc1)c1ccccc1 | > 20.8 | 4.16 | 

SMILES | IC50 [1] [µM] | IC50 ([2]; Trypanosoma brucei, STIB 795) [µM] | IC50 [2]
CN1CCN(Cc2cn(-c3ccc(Cl)cc3)c3ccc(F)cc23)CC1 | > 41.7 | 5.2 | 
CCOc1cc2c(cc1OCC)C(/C(Cl)=C/c1ccccc1)NCC2 (centres undefined) | > 41.7 | 5 | 
CC(CON1C(N)=NC(N)=NC1(C)C)Cc1cc(Cl)ccc1Cl (centres undefined) | > 20.8 | 4.67 | 
COc1ccc(/C=N/NC(=O)C(OC)c2ccccc2)c(OC)c1OC (centres undefined) | > 4.17 | 2.27 | 
COc1ccc(/C(N)=N/OC(=O)C23CC4CC(CC(C4)C2)C3)cc1OC | > 41.7 | 0.774 | 
CC1(C)N=C(N)N=C(N)N1OCc1ccc(F)c(-c2ccc(F)cc2)c1 | > 2.08 | ≤ 1.45 | 
COc1cccc(C2=NC(c3cccnc3)NC(c3ccccc3O)C2)c1 (centres undefined) | > 20.8 | 1.5 | 
CS(=O)(=O)c1cccc(C(=O)Nc2nc(-c3ccccn3)cs2)c1 | > 10.4 | 0.498 | 
CC1(C)CC(N2COc3c(cc(Cl)c4cccnc34)C2)CC(C)(C)N1 | > 20.8 | 5.53 | 
COc1cc(Cl)cc2c1Sc1ccccc1CC2N1CCNCC1 (centres undefined) | > 20.8 | 4.17 | 
Cc1ccnc(NC(c2ccc3cccnc3c2O)c2sccc2C)c1 (centres undefined) | > 20.8 | 3.32 | 
Oc1c(C(Nc2ccccn2)c2ccccc2Cl)ccc2cccnc12 (centres undefined) | > 20.8 | 9.28 | 
Cc1nnc(-c2cc(S(=O)(=O)NCc3ccc4c(c3)OCO4)c[nH]2)o1 | > 41.7 | 5.42 | 
CC(Cc1ccccc1)[n+]1[cH-]/c(=N\C(=N\Cc2ccccc2)N(C)C)on1 (centres undefined) | > 41.7 | 0.83 | 
C=CCn1c(-c2ccccc2Cl)nn(C2CCC3OCC2O3)c1=S (centres undefined) | > 20.8 | 3.79 | 
O=C(CC1(O)C(=O)Nc2ccc(Br)cc21)c1ccccc1F (centres undefined) | > 41.7 | 4.54 | 
CC(C)(C)c1cc(/C=N/Nc2nc3ccccc3[nH]2)cc(C(C)(C)C)c1O | > 20.8 | 0.485 | 
CN(C)CCCN(C)Cc1ccccc1Sc1ccc2ccccc2c1 | > 41.7 | 2.57 | 
CCN(CC)CCn1c(=N)n(CC(=O)c2ccc(C)cc2)c2ccccc21 | > 41.7 | 4.72 | 4.97 µM
N=C(Nc1nc(-c2ccccn2)cc2ccccc12)c1cccc(Cl)c1 | > 41.7 | 6.02 | 
Cc1cc2nc(N/C(N)=N/C(=O)NC3CCCCC3)nc(C)c2cc1C | > 41.7 | 5.33 | 
